# Assay results reported in PubChem BioAssay AID1963986 (Molecular Pharmacology Branch, DTP, NCI, 2024).
# Test system: 171881-019-R-J1-PDC tumor spheroid viability
# Test: Anticancer human tumor 171881-019-R-J1-PDC patient-derived invasive breast carcinoma cell line growth inhibition [PI3K]
# Settings: spheroids with HUVEC and MSC; for IC50: curve of first compound; for viability, T/C: stronger effect = lower value
# Outline: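 Stroma-containing spheroids: tumor line, pooled-donor HUVEC, hMSC. Treatments: targeted agents with PI3K inhibitors. Dosing: clinically relevant, half-log spacing, 10 microM ceiling without known Cmax. Read-out: cell viability.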
# 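Also: spheroids exposed to compound for 7 days before viability read.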
# 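For viability, T/C in this document: 100% = DMSO vehicle-treated spheroids.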
compound,measurement,setting,value
CC1(C)CCC(Nc2ncc(C(F)(F)F)c(-c3c[nH]c4c(P(C)(C)=O)c(C#N)ccc34)n2)CN1 (centres undefined) + CC(Nc1ncnc2nc[nH]c12)c1cc2cccc(Cl)c2c(=O)n1-c1ccccc1,IC50,second compound 0.0316 µM,5.91 µM
same,IC50,second compound 0.1 µM,5.62 µM
same,IC50,second compound 0.316 µM,5.58 µM
same,IC50,second compound 1 µM,5.22 µM
same,IC50,second compound 3.16 µM,4.43 µM
same,IC50,second compound 10 µM,< 0.0316 µM
same,"viability, T/C","second compound 0.0316 µM, first compound 0.0316 µM",68.3%
same,"viability, T/C","second compound 0.0316 µM, first compound 0.1 µM",77.2%
same,"viability, T/C","second compound 0.0316 µM, first compound 0.316 µM",71.8%
same,"viability, T/C","second compound 0.0316 µM, first compound 1 µM",79.3%
same,"viability, T/C","second compound 0.0316 µM, first compound 3.16 µM",84.1%
same,"viability, T/C","second compound 0.0316 µM, first compound 10 µM",28.1%
same,"viability, T/C","second compound 0.1 µM, first compound 0.0316 µM",65.5%
same,"viability, T/C","second compound 0.1 µM, first compound 0.1 µM",74.5%
same,"viability, T/C","second compound 0.1 µM, first compound 0.316 µM",73.1%
same,"viability, T/C","second compound 0.1 µM, first compound 1 µM",81.5%
same,"viability, T/C","second compound 0.1 µM, first compound 3.16 µM",88.8%
same,"viability, T/C","second compound 0.1 µM, first compound 10 µM",23.3%
same,"viability, T/C","second compound 0.316 µM, first compound 0.0316 µM",65.5%
same,"viability, T/C","second compound 0.316 µM, first compound 0.1 µM",75.1%
same,"viability, T/C","second compound 0.316 µM, first compound 0.316 µM",74.1%
same,"viability, T/C","second compound 0.316 µM, first compound 1 µM",83.2%
same,"viability, T/C","second compound 0.316 µM, first compound 3.16 µM",81.9%
same,"viability, T/C","second compound 0.316 µM, first compound 10 µM",23.4%
same,"viability, T/C","second compound 1 µM, first compound 0.0316 µM",69.1%
same,"viability, T/C","second compound 1 µM, first compound 0.1 µM",69%
same,"viability, T/C","second compound 1 µM, first compound 0.316 µM",73.8%
same,"viability, T/C","second compound 1 µM, first compound 1 µM",78.6%
same,"viability, T/C","second compound 1 µM, first compound 3.16 µM",73%
same,"viability, T/C","second compound 1 µM, first compound 10 µM",20.6%
same,"viability, T/C","second compound 3.16 µM, first compound 0.0316 µM",66%
same,"viability, T/C","second compound 3.16 µM, first compound 0.1 µM",65%
same,"viability, T/C","second compound 3.16 µM, first compound 0.316 µM",67.9%
same,"viability, T/C","second compound 3.16 µM, first compound 1 µM",71.4%
same,"viability, T/C","second compound 3.16 µM, first compound 3.16 µM",65.3%
same,"viability, T/C","second compound 3.16 µM, first compound 10 µM",12.7%
same,"viability, T/C","second compound 10 µM, first compound 0.0316 µM",51%
same,"viability, T/C","second compound 10 µM, first compound 0.1 µM",47%
same,"viability, T/C","second compound 10 µM, first compound 0.316 µM",45.9%
same,"viability, T/C","second compound 10 µM, first compound 1 µM",48.5%
same,"viability, T/C","second compound 10 µM, first compound 3.16 µM",41.4%
same,"viability, T/C","second compound 10 µM, first compound 10 µM",3.63%
Cn1cnc2c(F)c(Nc3ccc(Br)cc3Cl)c(C(=O)NOCCO)cc21 + COc1c(OCCCN2CCOCC2)ccc2c3n(c(=NC(=O)c4cnc(N)nc4)nc12)CCN3,IC50,second compound 0.00316 µM,0.059 µM
same,IC50,second compound 0.01 µM,< 0.00949 µM
same,IC50,second compound 0.0316 µM,< 0.00949 µM
same,IC50,second compound 0.1 µM,< 0.00949 µM
same,IC50,second compound 0.316 µM,< 0.00949 µM
same,IC50,second compound 1 µM,< 0.00949 µM
same,"viability, T/C","second compound 0.00316 µM, first compound 0.00949 µM",55.7%
same,"viability, T/C","second compound 0.00316 µM, first compound 0.03 µM",59.1%
same,"viability, T/C","second compound 0.00316 µM, first compound 0.0949 µM",43.1%
same,"viability, T/C","second compound 0.00316 µM, first compound 0.3 µM",37.1%
same,"viability, T/C","second compound 0.00316 µM, first compound 0.949 µM",21.8%
same,"viability, T/C","second compound 0.00316 µM, first compound 3 µM",9.21%
same,"viability, T/C","second compound 0.01 µM, first compound 0.00949 µM",39.5%
same,"viability, T/C","second compound 0.01 µM, first compound 0.03 µM",39.4%
same,"viability, T/C","second compound 0.01 µM, first compound 0.0949 µM",31.9%
same,"viability, T/C","second compound 0.01 µM, first compound 0.3 µM",24.2%
same,"viability, T/C","second compound 0.01 µM, first compound 0.949 µM",14%
same,"viability, T/C","second compound 0.01 µM, first compound 3 µM",4.9%
same,"viability, T/C","second compound 0.0316 µM, first compound 0.00949 µM",20.8%
same,"viability, T/C","second compound 0.0316 µM, first compound 0.03 µM",18.8%
same,"viability, T/C","second compound 0.0316 µM, first compound 0.0949 µM",16.9%
same,"viability, T/C","second compound 0.0316 µM, first compound 0.3 µM",10.5%
same,"viability, T/C","second compound 0.0316 µM, first compound 0.949 µM",6.05%
same,"viability, T/C","second compound 0.0316 µM, first compound 3 µM",1.88%
same,"viability, T/C","second compound 0.1 µM, first compound 0.00949 µM",6.77%
same,"viability, T/C","second compound 0.1 µM, first compound 0.03 µM",5.8%
same,"viability, T/C","second compound 0.1 µM, first compound 0.0949 µM",4.51%
same,"viability, T/C","second compound 0.1 µM, first compound 0.3 µM",2.81%
same,"viability, T/C","second compound 0.1 µM, first compound 0.949 µM",1.28%
same,"viability, T/C","second compound 0.1 µM, first compound 3 µM",0.8%
same,"viability, T/C","second compound 0.316 µM, first compound 0.00949 µM",1.87%
same,"viability, T/C","second compound 0.316 µM, first compound 0.03 µM",2.04%
same,"viability, T/C","second compound 0.316 µM, first compound 0.0949 µM",1.3%
same,"viability, T/C","second compound 0.316 µM, first compound 0.3 µM",0.68%
same,"viability, T/C","second compound 0.316 µM, first compound 0.949 µM",0.42%
same,"viability, T/C","second compound 0.316 µM, first compound 3 µM",0.28%
same,"viability, T/C","second compound 1 µM, first compound 0.00949 µM",0.82%
same,"viability, T/C","second compound 1 µM, first compound 0.03 µM",1.37%
same,"viability, T/C","second compound 1 µM, first compound 0.0949 µM",0.93%
same,"viability, T/C","second compound 1 µM, first compound 0.3 µM",1.07%
same,"viability, T/C","second compound 1 µM, first compound 0.949 µM",0.79%
same,"viability, T/C","second compound 1 µM, first compound 3 µM",0.56%
